Patent US7396842B2, “Five-membered cyclic compounds” (Dianippon Sumitomo Pharma Co., Ltd., priority 2002, dated 2008)

These compounds were tested against T1, SMBS on rat lung membranes (Rattus norvegicus, UniProt A0A8I6A822) (assay: Receptor binding of the compound in rat lung membranes ([125I]-iodo-cyanopindolol ligand binding assay; Experiments 1 and 4)). Conditions: Table 43; concentration tested 30 μM; rat lung membranes; Experiment 4; read-out: Binding Activity (30 μM).
T1 construct: from tissue; host or cells: rat lung membranes (SD male rats)
T1 sequence (A0A8I6A822 27-587): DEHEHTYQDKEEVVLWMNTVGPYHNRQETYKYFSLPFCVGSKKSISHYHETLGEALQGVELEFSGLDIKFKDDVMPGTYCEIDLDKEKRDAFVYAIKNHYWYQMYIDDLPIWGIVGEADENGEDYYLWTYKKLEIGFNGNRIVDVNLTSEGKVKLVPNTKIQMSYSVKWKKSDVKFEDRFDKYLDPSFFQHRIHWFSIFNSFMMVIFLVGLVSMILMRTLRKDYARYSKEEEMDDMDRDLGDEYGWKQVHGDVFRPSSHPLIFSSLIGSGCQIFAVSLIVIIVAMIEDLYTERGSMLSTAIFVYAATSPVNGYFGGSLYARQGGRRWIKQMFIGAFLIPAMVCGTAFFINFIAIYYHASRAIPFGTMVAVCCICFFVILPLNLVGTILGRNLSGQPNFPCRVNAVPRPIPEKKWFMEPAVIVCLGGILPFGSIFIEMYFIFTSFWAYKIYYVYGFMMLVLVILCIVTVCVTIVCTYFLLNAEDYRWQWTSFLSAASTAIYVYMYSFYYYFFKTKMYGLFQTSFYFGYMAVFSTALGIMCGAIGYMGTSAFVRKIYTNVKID
Procedure: Evaluation Test on Receptor Binding of the Compound in Rat Lung Membranes:
This experiment was carried out according to the method disclosed in Sugasawa et al., (Sugasawa, T. et al., J. Biol. Chem., 272, 21244-21252(1997)).
Preparation of Rat Lung Membranes
The air tube and blood vessels were removed from the lung excised from SD male rats (7-weeks old when used, purchased from Charles River Japan, Inc.), and the lung was chopped, and washed with ice-cold tris-saline buffer (10 mM Tris-HCl, 154 mM sodium chloride, pH 7.4). The lung was homogenized by PHYSCOTRON (maximum speed: 1 minute) in a buffer for homogenization (tris-saline buffer containing 1 mM ethylenediaminetetraacetate (EDTA), 1 mM 4-(2-aminoethyl)-benzenesulfonyl fluoride (AEBSF), 5 μg/ml aprotinin, 5 μg/ml leupeptin) under ice-cooling. The mixture was centrifuged at a low speed (1500×g, 20 minutes, 4° C.), and the supernatant was super-centrifuged (100000×g, 20 minutes, 4° C.). The pellets thus obtained were suspended in tris-saline buffer, and kept at −80° C. The concentration of protein was measured by a Protein Assay Kit manufactured by Bio-Rad using bovine serum albumin (BSA) as standard.
To each well of a protein-non-adsorbent round-bottom 96-well assay plate (purchased from IWAKI GLASS CO., LTD.) was added tris-saline buffer (200 μl) containing 1 nM [^125I]-iodo-cyanopindolol (purchased from Amarsham), 10 μM serotonin, 20 μM dl-propranol, 10 μM phentoramine, 1.1 mM ascorbic acid and 100 μg lung membranes, and the mixture was mixed well by pipetting, and the plate was incubated at 37° C. for 30 minutes. Test compounds were dissolved in 100% dimethylsulfoxide, and added to the plate in an amount of 2 μl (final concentration of DMSO: 1%). In order to obtain non-specific binding, L-threo-3-(3,4-dihydroxyphenyl)-N-[3-(4-fluorophenyl)propyl]-serinepyrrolidinamide was added at a final concentration of 100 μM instead of test compound. During this period, 0.3% polyethyleneimine (PEI)/tris-saline buffer (100 μl) was added to a multiscreen plate (96-well B-glassfiber, milipore Cat. No. MAFB NOB10) and the plate was incubated for more than 30 minutes. The plate was washed by vacuum filtration (by adding ice-cold tris-saline buffer (200 μl) and then vacuum filtration), and the reaction solution on the 96-well assay plate was washed by vacuum filtration onto the multiscreen plate for four times. The B-glassfiber paper filter at the bottom of the multiscreen plate was punched out, and the γ-ray amount of [^125I]-iodo-cyanopindolol being trapped onto the paper filter was measured as binding amount. The binding amount in the presence of DMSO (final concentration: 1%) was regarded as total binding, and the binding in the presence of L-threo-3-(3,4-dihydroxyphenyl) -N-[3-(4-fluorophenyl)-propyl]serinepyrrolidinamide was regarded as non-specific binding. The value which is calculated by subtracting non-specific binding from total binding is specific binding. The binding activity of the compound can be calculated by the following equation, and expressed in a ratio of inhibiting the specific binding of [^125I]-iodo-cyanopindorol to SMBS on rat lung membranes.
In the same manner to in Experiment 1, the receptor binding assay was carried out on the present compounds by using the rat lung membranes.

Row | Compound | inhibition at 30 µM
1 | COCCNC(=O)NCCCn1c(-c2ccc(N3CCOCC3)cc2)cs/c1=N\c1ccc(F)cc1 [Example 355] | 89%
2 | O=C(CN1CCCC1)NCCCn1c(-c2ccc(N3CCOCC3)cc2)csc1=Nc1ccc(F)cc1 [Example 357, N-{3-[2-[(4-Fluorophenyl)imino]-4-[4-(morpholino)phenyl]thiazol-3(2H)-yl]propyl}-2-(1-pyrrolidinyl)acetamide] | 86%
3 | O=C(CNc1ccccc1)NCCCn1c(-c2ccc(N3CCOCC3)cc2)cs/c1=N\c1ccc(F)cc1 [Example 359] | 82%
4 | CN(C)CC(=O)NCCCn1c(-c2ccc(N3CCOCC3)cc2)cs/c1=N\c1ccc(F)cc1 [Example 361] | 88%
5 | COc1ccc(C/N=c2\scc(-c3ccc(OC(F)(F)F)cc3)n2CCCN)c(OC)c1 [Example 362, 3-[2-[(2,4-Dimethoxybenzyl)imino]-4-[4-(trifluoromethoxy)phenyl]-1,3-thiazol-3(2H)-yl]-1-propanamine] | 117%
6 | COc1ccc(C/N=c2\scc(-c3ccc(OC(F)(F)F)cc3)n2CCCNC(C)=O)c(OC)c1 [Example 373, N-{3-[2-[(2,4-dimethoxybenzyl)imino]-4-[4-(trifluoromethoxy)phenyl]-1,3-thiazol-3(2H)-yl]propyl}acetamide] | 90%
7 | COCC(=O)NCCCn1c(-c2ccc(OC(F)(F)F)cc2)cs/c1=N\Cc1ccc(OC)cc1OC [Example 383, N-{3-[2-[(2,4-Dimethoxybenzyl)imino]-4-[4-(trifluoromethoxy)phenyl]-1,3-thiazol-3(2H)-yl]propyl}-2-methoxyacetamide] | 84%
8 | O=C(CN1CCCC1)NCCCn1c(-c2ccc(OC(F)(F)F)cc2)cs/c1=N\Cc1ccc(Cl)cc1 [Example 384, N-{3-[2-[(4-Chlorobenzyl)imino]-4-[4-(trifluoromethoxy)phenyl]-1,3-thiazol-3(2H)-yl]propyl}-2-(1-pyrrolidinyl)acetamide] | 107%
9 | CCNC(=O)NCCCn1c(-c2ccc(F)cc2)cs/c1=N\Cc1ccc(Cl)cc1OC [Example 402, N-{3-[2-[(4-Chloro-2-methoxybenzyl)imino]-4-(4-fluorophenyl)-1,3-thiazol-3(2H)-yl]propyl}-N′-ethylurea] | 79%
10 | COCCNC(=O)NCCCn1c(-c2ccc(OC(F)(F)F)cc2)cs/c1=N\Cc1ccc(Cl)cc1 [Example 409, N-{3-[2-[(4-Chlorobenzyl)imino]-4-[4-(trifluoromethoxy)phenyl]-1,3-thiazol-3(2H)-yl]propyl}-N′-(2-methoxyethyl)urea] | 89%
11 | COCCNCCCn1c(-c2ccc(F)cc2)cs/c1=N\Cc1ccc(Cl)cc1OC [Example 411, 3-[2-[(4-Chloro-2-methoxybenzyl)imino]-4-(4-fluorophenyl)-1,3-thiazol-3(2H)-yl]-(2-methoxyethyl)-1-propanamine] | 118%
12 | CCNC(=O)CNCCCn1c(-c2ccc(OC(F)(F)F)cc2)cs/c1=N\Cc1ccc(Cl)cc1 [Example 417, N^2-{3-[2-[(4-Chlorobenzyl)imino]-4-[4-(trifluoromethoxy)phenyl]-1,3-thiazol-3(2H)-yl]propyl}-N^1-ethylglycinamide] | 113%

Same assay, conditions: Table 44; concentration tested 30 μM; rat lung membranes; Experiment 4; read-out: Binding Activity (30 μM)

Row | Compound | inhibition at 30 µM
13 | CCOC(=O)NCCCn1c(-c2ccc(OC(F)(F)F)cc2)cs/c1=N\Cc1ccc(Cl)cc1 [Example 368] | 100%
14 | O=C(NCCCn1c(-c2ccc(OC(F)(F)F)cc2)cs/c1=N\Cc1ccc(Cl)cc1)Nc1ccc(F)cc1 [Example 393] | 80%
15 | CCNC(=O)NCCCn1c(-c2ccc(OC)cc2)cs/c1=N\CCc1ccncc1 [Example 398] | 37%
16 | CN(C)C(=O)NCCCn1c(-c2ccc(OC(F)(F)F)cc2)cs/c1=N\Cc1ccc(Cl)cc1 [Example 404] | 109%
17 | O=C(NCCCn1c(-c2ccc(OC(F)(F)F)cc2)cs/c1=N\Cc1ccc(Cl)cc1)N1CCOCC1 [Example 405] | 115%
18 | O=C(NCCCn1c(-c2ccc(OC(F)(F)F)cc2)cs/c1=N\Cc1ccc(Cl)cc1)NCCN1CCCC1 [Example 408] | 121%
19 | COc1ccc(C/N=c2\scc(-c3ccc(OC(F)(F)F)cc3)n2CCCNCC(F)(F)F)c(OC)c1 [Example 413] | 96%
20 | O=C(CNCCCn1c(-c2ccc(OC(F)(F)F)cc2)cs/c1=N\Cc1ccc(Cl)cc1)NCCO [Example 423] | 113%
21 | O=C(O)CNCCCn1c(-c2ccc(OC(F)(F)F)cc2)cs/c1=N\Cc1ccc(Cl)cc1 [Example 427, N-{3-[2-[(4-Chlorobenzyl)imino]-4-[4-(trifluoromethoxy)phenyl]-1,3-thiazol-3(2H)-yl]propyl}glycine] | 100%
22 | O=C(O)CCNCCCn1c(-c2ccc(OC(F)(F)F)cc2)cs/c1=N\Cc1ccc(Cl)cc1 [Example 428] | 103%
23 | COc1cc(Cl)ccc1C/N=c1\scc(-c2ccc(F)cc2)n1CCCNC(=N)N [Example 429, N′-{3-[2-[(4-Chloro-2-methoxybenzyl)imino]-4-(4-fluorophenyl)-1,3-thiazol-3(2H)-yl]propyl}guanidine] | 103%
24 | CCS(=O)(=O)NCCCn1c(-c2ccc(OC(F)(F)F)cc2)cs/c1=N\Cc1ccc(Cl)cc1 [Example 430, N′-{3-[2-[(4-Chlorobenzyl)imino]-4-[4-(trifluoromethoxy)phenyl]-1,3-thiazol-3(2H)-yl]propyl}ethanesulfonamide] | 89%
25 | COc1ccc(C(=O)/N=c2\scc(C(=O)Nc3ccc(Cl)cc3)n2CCCN)c(OC)c1 [Example 431, 3-(3-Aminopropyl)-N-(4-chlorophenyl)-2-[(2,4-dimethoxybenzoyl)imino]-2,3-dihydro-1,3-thiazol-4-carboxamide] | 95%
26 | COc1ccc(C(=O)/N=c2\scc(C(=O)N3CCc4ccccc4C3)n2CCCN)c(OC)c1 [Example 432] | 42%
27 | COc1ccc(C(=O)/N=c2\scc(C(=O)NCCCCc3ccccc3)n2CCCN)c(OC)c1 [Example 435] | 93%
28 | COc1ccc(C(=O)/N=c2\scc(-c3ccc(OC(F)(F)F)cc3)n2CCCN)c(OC)c1 [Example 437] | 106%
29 | NCCCn1c(-c2ccc(OC(F)(F)F)cc2)cs/c1=N\C(=O)c1ccco1 [Example 441] | 61%
30 | CCOC(=O)NCCCn1c(-c2ccc(OC(F)(F)F)cc2)cs/c1=N\C(=O)c1ccc(OC)cc1OC [Example 444] | 99%
31 | CCCC(=O)NCCCn1c(-c2ccc(OC(F)(F)F)cc2)cs/c1=N\C(=O)c1ccc(OC)cc1OC [Example 447] | 89%
32 | CCCCCC(=O)NCCCn1c(-c2ccc(OC(F)(F)F)cc2)cs/c1=N\C(=O)c1ccc(OC)cc1OC [Example 448] | 77%
33 | CC(=O)NCCCn1c(-c2ccc(OC(F)(F)F)cc2)cs/c1=N\C(=O)c1ccccn1 [Example 449] | 71%
34 | CC(=O)NCCCn1c(-c2ccc(OC(F)(F)F)cc2)cs/c1=N\C(=O)c1ccncc1 [Example 452] | 84%
35 | CC(=O)NCCCn1c(-c2ccc(OC(F)(F)F)cc2)cs/c1=N\C(=O)CCc1ccccc1 [Example 454] | 38%
36 | CC(=O)NCCCn1c(-c2ccc(OC(F)(F)F)cc2)cs/c1=N\C(=O)CC1CCCC1 [Example 458] | 87%

Same assay, conditions: ratio of inhibiting the specific binding of [125I]-iodo-cyanopindolol; test concentration 30 μM; rat lung membranes; read-out: Binding Activity (30 μM)

Row | Compound | inhibition at 30 µM
37 | COc1ccc(C(=O)/N=c2\scc(C(=O)Nc3ccc(Cl)cc3)n2CCCNC(C)=O)c(OC)c1 [Example 461] | 42%
38 | COc1ccc(C(=O)/N=c2\scc(C(=O)NCc3ccc(Cl)cc3)n2CCCNC(C)=O)c(OC)c1 [Example 463] | 10%

Same assay, conditions: read-out: Binding Activity (30 μM)

Row | Compound | inhibition at 30 µM
39 | O=C(NCCCl)NCCCn1c(-c2ccc(OC(F)(F)F)cc2)cs/c1=N\Cc1ccc(Cl)cc1 [Example 390] | 120%
